Source: paper PMC13330650 (Matrix biology : journal of the International Society for …, 2025)
Numbering of substitutions follows the chain as printed. “Also recorded” adds a separate entry of the source. Like-named read-outs stand apart in the source and are kept apart here.

Assays:
[1] = test system: O-glycans in LNCaP UGDH WT (OE) and S316D cells; assay: metabolic O-glycan labeling (Ac4GalNaz click chemistry) with 4-MU; type: cell-based, human; details: 10 μM 4-MU, 72 hours
[2] = test system: UGDH pS316 in LNCaP cells; assay: western blot of UGDH pS316 (anti-p-Akt substrate) in LNCaP whole cell lysates; type: cell-based, human; details: for EGF-stimulated p-UGDH band intensity: EGF 20ng/mL, inhibitor 20 μM
Text: To validate the phosphorylation of UGDH by RSK2, S6K1, and SGK1 in a cellular context, we used a western analysis that capitalized on the general reactivity of an antibody generated against the phosphorylated AGC kinase motif (RxRxxpS/T) for targets of Akt, which is also a member of this kinase family. To validate the assay, we first compared phosphorylation of S316 in the in vitro kinase assay using purified recombinant UGDH. […] We further validated using serum starved LNCaP cells treated with EGF to stimulate activity of RSK2 [26] and S6K1 [27], or DHT to activate SGK1 [28], prior to lysate harvest.
(§1) Cell treatments were conducted as follows, except where described. To stimulate phosphorylation of UGDH at S316 for Western blot analysis, cells were cultured in replete medium until they reached 70 % confluence. Seventy-two hours prior to harvest, medium was replaced with phenol-red-free media containing 5 % CS-FBS to reduce androgen signaling. Twenty-four hours prior to harvest, medium was replaced with phenol-red-free media containing 10 % CS-FBS plus 10 nM DHT or vehicle control. EGF (20ng/mL) or vehicle control were added to cell media twenty minutes prior to harvest. For assessment of UGDH pS316 in these conditions with kinase inhibition, assays were repeated with kinase inhibitors added alongside EGF, DHT, and controls. Kinase inhibitor treatment concentrations were optimized based on published efficacy ranges and the following were used for all assays: BIX02565 (20 μM), PF4708671 (20 μM), GSK650394 (40 μM). Proliferation assays were performed with 10 μM enzalutamide (enz) added as described below, and 3D assays were performed with 1 μM enz added during seeding as described. For click chemistry quantification of glycans in cells treated with 4-MU, 10 μM was added to cell medium during the addition of the click labeling reagents.
Media were aspirated from cells, and a portion kept for analysis of HA content. Cells were washed with 2 mL cold 1x PBS, scraped into 1 mL of cold 1xPBS, pelleted by centrifugation, and lysed with 1x RIPA buffer supplemented with 1x protease inhibitor cocktail. For analysis of phosphoprotein expression, 1x phosphatase inhibitor was added to the lysis buffer. Bradford assay was performed to quantify protein content of cell lysates. Blots were imaged and quantified through fluorescence emission using the Odyssey Infrared Imaging System (LI-COR Biosciences, Lincoln, NE, USA). β-tubulin or GAPDH were used to normalize protein expression. Each analysis was plotted for three technical replicates of a representative experiment that was repeated at least three times. Statistical significance was assessed by one-way ANOVA followed by Tukey’s post hoc test for multiple comparisons.

[3] = test system: LNCaP cell lines (VC, UGDH WT (OE), UGDH S316D, UGDH S316A); assay: proliferation assay (resazurin conversion to resorufin); type: cell-based, human; details: for cell number / proliferation, single kinase inhibitor: all lines, 3-day, inhibitor 20 μM, replete media
Description: as §1
For basal growth, 5 × 10^4 cells of each line were cultured in 24-well plates in standard steroid-replete media. Cell proliferation was measured daily for three days in replicate plates incubated for 2 h with media containing 10 % resazurin, after which fluorescence of the reduced product, resorufin, was measured (560Ex/590Em) in a microplate reader. To assess the impacts of kinase inhibition on cell growth, assays were repeated in the presence of inhibitors individually and in combination. For androgen-mediated cell growth with kinase inhibition, cells were cultured in 24-well plates in standard steroid-replete media. After 12 h, media were first removed and replaced with media containing 5 % CS-FBS (androgen-depleted conditions) for 48 h, and then media were removed and replaced with media containing 10 % CS-FBS plus 10 nM DHT and kinase inhibitors for another 48 h. Cell proliferation was measured daily as described above beginning when cells were switched to androgen free conditions. For enz treatments, cells were cultured in 24-well plates in standard steroid-replete media. After 12 h, media were replaced with replete media containing vehicle or 10 μM enz and vehicle or kinase inhibitors. For assays with kinase inhibition, cell proliferation was measured daily as described above beginning when cells were switched to the respective treatment condition. Cell numbers were extrapolated from fluorescence values by comparison to a standard curve for each respective cell line, and cell count at the end of the experiment was normalized to cell count on day zero directly following media replacement. All data were plotted for four technical replicates of experiments that were repeated three times. Statistical significance was assessed by one-way ANOVA followed by Tukey’s post hoc test for multiple comparisons.

[4] = test system: LNCaP cell lines (VC, UGDH WT (OE), UGDH S316D, UGDH S316A); assay: tumoroid (anchorage independent spheroid) growth assay; type: cell-based, human
UGDH S316A = molecular target: T1, UGDH S316A (Homo sapiens, UniProt O60701, S316A); assay: steady state kinetics of purified recombinant UGDH S316A; type: biochemical; details: cofactor NAD+ varied
T1 construct: six-histidine; made in house; host or cells: E. coli BL21(DE3)
T1 sequence (O60701 1-494 S316A): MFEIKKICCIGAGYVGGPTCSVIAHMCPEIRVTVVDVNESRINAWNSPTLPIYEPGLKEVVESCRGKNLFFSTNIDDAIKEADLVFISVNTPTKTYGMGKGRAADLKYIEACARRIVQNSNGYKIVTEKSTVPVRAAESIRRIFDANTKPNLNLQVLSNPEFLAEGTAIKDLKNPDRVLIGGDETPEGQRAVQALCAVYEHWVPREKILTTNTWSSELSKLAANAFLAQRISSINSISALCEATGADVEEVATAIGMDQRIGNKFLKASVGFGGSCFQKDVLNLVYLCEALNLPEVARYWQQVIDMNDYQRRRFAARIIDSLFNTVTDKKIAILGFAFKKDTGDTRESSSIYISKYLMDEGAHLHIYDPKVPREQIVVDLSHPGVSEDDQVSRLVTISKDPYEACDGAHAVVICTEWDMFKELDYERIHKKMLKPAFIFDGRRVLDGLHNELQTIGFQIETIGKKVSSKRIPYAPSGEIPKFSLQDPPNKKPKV
Description: (§2) Purified S316 mutants were compared to the UGDH WT enzyme using the following approaches as previously described. Enzymatic activity was evaluated by steady state kinetics in the presence and absence of the endogenous inhibitor UDP-Xylose to compare Michaelis constants and IC50 values. Intrinsic stability was assessed by thermal denaturation and quaternary structure was determined by size exclusion chromatography. Binding of UDP-Xylose to recombinant UGDH and mutants was measured by isothermal titration calorimetry using the MicroCal PEAQ-ITC (Malvern Panalytical). […] Binding heats were corrected for the heat of dilution and analyzed using the MicroCal PEAQ-ITC Analysis Software, employing a single-site binding model to determine Kd values.

UGDH S316D = molecular target: T2, UGDH S316D (Homo sapiens, UniProt O60701, S316D); assay: steady state kinetics of purified recombinant UGDH S316D; type: biochemical; details: cofactor NAD+ varied
T2 construct: six-histidine; made in house; host or cells: E. coli BL21(DE3)
T2 sequence (O60701 1-494 S316D): T1 sequence (O60701 1-494 S316A) with A316D
Description: as §2

UGDH WT = molecular target: T3, UGDH WT (Homo sapiens, UniProt O60701); assay: steady state kinetics of purified recombinant UGDH WT; type: biochemical; details: cofactor NAD+ varied
T3 construct: six-histidine; made in house; host or cells: E. coli BL21(DE3)
T3 sequence (O60701 1-494): T1 sequence (O60701 1-494 S316A) with A316S
Description: as §2

## Cc1cc(=O)oc2cc(O)ccc12 [4-MU, 4-methylumbelliferone]
[1]; UGDH S316D cell lines
  O-glycan levels with 4-MU: this reversal was not observed
[1]; UGDH WT (OE) cells
  O-glycan levels with 4-MU: significant reductions in O-linked glycans; also recorded: reversed the enhancement of O-glycan levels

## C[C@@H]1CCNC(=O)c2cc3ccc(C(=O)Nc4nc5ccccc5n4CCCN(C)C)cc3n21 [BIX02565]
[2]; LNCaP cells
  EGF-stimulated p-UGDH band intensity: significantly reduced
[3]; VC and UGDH S316A cells, BIX02565 20 μM
  cell death: induced significant cell death
[3]
  cell number / proliferation, single kinase inhibitor: reduced cell number in all lines
[4]; UGDH WT (OE) and S316D expressing cells, RSK2 inhibitor BIX02565 20 μM
  spheroid growth diminished: ≈ 80%
[4]; VC and UGDH S316A cell lines, RSK2 inhibitor BIX02565 20 μM
  medium and large spheroid growth: almost completely suppressed

## C[C@]12CCC(=O)C[C@@H]1CC[C@@H]1[C@@H]2CC[C@]2(C)[C@@H](O)CC[C@@H]12 [DHT, 5α-Androstan-17β-ol-3-one]
[2]
  stimulation of UGDH phosphorylation in whole cell lysates: Strong stimulation

## O=C(O)c1ccc(-c2c[nH]c3ncc(-c4ccccc4)cc23)cc1C1CCCC1 [GSK650394]
[2]; LNCaP cells, 10 nM DHT, GSK650394 40 μM
  DHT-stimulated p-UGDH band: virtually eliminated
[3]; GSK650394 40 μM, depleted 48 h, then serum and 10 nM DHT
  cell proliferation after serum and steroid depletion: significant impacts were observed
[3]; GSK650394 40 μM, replete medium, not shown
  cell proliferation in replete medium: did not abrogate cell proliferation

## NC(=O)c1ccc[n+]([C@@H]2O[C@H](COP(=O)([O-])OP(=O)(O)OC[C@H]3O[C@@H](n4cnc5c(N)ncnc54)[C@H](O)[C@@H]3O)[C@@H](O)[C@H]2O)c1 [NAD+]
UGDH S316A
  Km: 380 ± 60 µM
  NAD+ Vmax: 490±20 nmol/min/mg of protein
UGDH S316A; listed as NAD^+
  NAD+ Vmax: 490 nmol/min/mg of protein
UGDH S316D
  Km: 330 ± 70 µM
  NAD+ Vmax: 230±20 nmol/min/mg of protein
UGDH S316D; listed as NAD^+
  NAD+ Vmax: 230 nmol/min/mg of protein
UGDH WT
  Km: 530 ± 90 µM
  NAD+ Vmax: 710±40 nmol/min/mg of protein
UGDH WT; listed as NAD^+
  NAD+ Vmax: 710 nmol/min/mg of protein

## CCc1cncnc1N1CCN(Cc2nc3ccc(C(F)(F)F)cc3[nH]2)CC1 [PF4708671]
[2]; LNCaP cells
  EGF-stimulated p-UGDH band intensity: significantly reduced
[3]
  cell number / proliferation, single kinase inhibitor: reduced proliferation in all lines

## CNC(=O)c1ccc(N2C(=S)N(c3ccc(C#N)c(C(F)(F)F)c3)C(=O)C2(C)C)cc1F [enz, enzalutamide]
[3]; UGDH S316D lines, 10 μM enz + PF4708671 20 μM
  growth in the presence of enz and S6K1 inhibitor: < 30 % of initial cell count
[3]; UGDH WT and S316D cells, 10 μM enz
  proliferation in the presence of enz alone: minimal detectable effect on proliferation; also recorded: continued to proliferate
[3]; UGDH WT and S316D, 10 μM enz + BIX02565 20 μM
  growth reduction, combined targeting of RSK2 with enz: ≈ 20%
[3]; VC and UGDH S316A lines, 10 μM enz + BIX02565 20 μM
  growth, combined targeting of RSK2 with enz: eliminated growth
[3]; VC and UGDH S316A-expressing cells, 10 μM enz
  growth suppression by enz alone: ≈ 40%
[4]; UGDH WT (OE) and S316D expressing cells, 1 μM enz
  enz suppression of large spheroid growth: sensitive

## EGF: growth factor used to stimulate activity of RSK2 and S6K1
[2]; serum starved LNCaP cells, EGF 20ng/mL or 10 nM DHT
  stimulation of UGDH phosphorylation in whole cell lysates: Strong stimulation
